A short description of data set [1]: Blood pressure assessment (CODA system). Format: in vivo, mouse. As for the experimental part:
Blood pressure was measured using a CODA system (Kent Scientific, Torrington, CT, USA) on 5 adult male BALB/c mice. Mice were anesthetized with 2% isoflurane in oxygen at 1 dm^3/min and placed on the CODA IR heating pad with a feedback rectal temperature probe and nosecone to maintain anesthesia. An occlusion cuff and VPR cuff were placed on the tail. The baseline measurement was recorded over 30 min, then OXi8007 (250 mg/kg or 325 mg/kg) was administered IP and the blood pressure measurement resumed for 45 min. As positive and negative controls, hydralazine (1 mg/kg) or saline, respectively, were injected IP.

Data set [2] is described as follows: Pharmacokinetic study in Renca-luc tumor-bearing BALB/c mice. Format: in vivo, mouse. The following applies: for Tmax: read-out: Tmax (converted). As for the experimental part: Plasma and tissues were harvested at various time points (20 min to 16 h) from Renca-luc tumor-bearing BALB/c male mice following the administration of OXi8007 IP. Mice treated with 250 mg/kg were sacrificed at 20 min (n = 3), 1 h (n = 4), 2 h (n = 4), 4 h (n = 4), 8 h (n = 4), and 16 h (n = 4). Mice were anesthetized, exsanguinated, the tissues were blotted, and then they were weighed and frozen in liquid nitrogen. Homogenized plasma and tissue samples were extracted with acetonitrile with a bead mill; internal standard (CA4 or tri-labeled ^13C-OXi8006) was added to each sample to reach a final concentration of 10 ppb. Samples were centrifuged twice to remove precipitated proteins (16,260× g for 10 min at 4 °C). Clear supernatant was transferred into MS vials, and formic acid was added to a final concentration of 0.1% for LC-MS analysis. […] Mobile phase A consisted of 0.1% v/v formic acid in water, and mobile phase B was acetonitrile, which was mixed by the binary pump with an elution gradient at a flow rate of 0.6 mL/min. Data were analyzed using Xcalibur 4.6 software based on exact masses, and Phoenix WinNonlin 8.5.0 software was used to determine the pharmacokinetic parameters based on a non-compartmental model.

The mark [3] stands for this setting: male, BALB/c, mouse, ip, glucuronide metabolite, brain, after OXi8007 250 mg/kg.
Where [4] appears, read: male, BALB/c, mouse, ip, glucuronide metabolite, heart, after OXi8007 250 mg/kg.
[5] abbreviates: male, BALB/c, mouse, ip, glucuronide metabolite, left kidney, after OXi8007 250 mg/kg.
Where [6] appears, read: male, BALB/c, mouse, ip, glucuronide metabolite, liver, after OXi8007 250 mg/kg.
Setting [7] is: male, BALB/c, mouse, ip, glucuronide metabolite, lungs, after OXi8007 250 mg/kg.
Where [8] appears, read: male, BALB/c, mouse, ip, glucuronide metabolite, plasma, after OXi8007 250 mg/kg.
[9] abbreviates: male, BALB/c, mouse, ip, glucuronide metabolite, spleen, after OXi8007 250 mg/kg.
[10] abbreviates: male, BALB/c, mouse, ip, glucuronide metabolite, tumor, after OXi8007 250 mg/kg.
The mark [11] stands for this setting: male, BALB/c, mouse, in vivo, ip, 250 mg/kg, brain, after OXi8007 250 mg/kg IP.
The mark [12] stands for this setting: male, BALB/c, mouse, in vivo, ip, 250 mg/kg, heart, after OXi8007 250 mg/kg IP.
[13] abbreviates: male, BALB/c, mouse, in vivo, ip, 250 mg/kg, left kidney, after OXi8007 250 mg/kg IP.
The mark [14] stands for this setting: male, BALB/c, mouse, in vivo, ip, 250 mg/kg, liver, after OXi8007 250 mg/kg IP.
[15] abbreviates: male, BALB/c, mouse, in vivo, ip, 250 mg/kg, lungs, after OXi8007 250 mg/kg IP.
Setting [16] is: male, BALB/c, mouse, in vivo, ip, 250 mg/kg, plasma, after OXi8007 250 mg/kg IP.
Where [17] appears, read: male, BALB/c, mouse, in vivo, ip, 250 mg/kg, spleen, after OXi8007 250 mg/kg IP.
The mark [18] stands for this setting: male, BALB/c, mouse, in vivo, ip, 250 mg/kg, tumor and right kidney, after OXi8007 250 mg/kg IP.

SMILES strings stand for the structures. Where two headings read alike, the source gives them in different places. Marks after values point to notes of the source that are not given here.

These results are taken from PMC11898701, “Evaluating Therapeutic Efficacy of the Vascular Disrupting Agent OXi8007 Against Kidney Cancer in Mice” (Cancers, 2025).

Take `NNc1nncc2ccccc12` [hydralazine, reference compound]: the “Hypotension (Δ BP)” value in data set [1] (1 mg/kg) was ~ 35 mmHg. For the same compound, in data set [1] (1 mg/kg IP), the “Drop in diastolic blood pressure (Δ)” value came out at 31 mmHg, the “Drop in mean blood pressure (Δ)” value is 34 mmHg and the “Drop in systolic blood pressure (Δ)” value amounted to 40 mmHg. In addition, in data set [1] (1 mg/kg IP, positive control), the “Drop in blood pressure” value is “about 30%”.
Turning to `COc1ccc2c(C(=O)c3cc(OC)c(OC)c(OC)c3)c(-c3ccc(OC)c(O[C@@H]4O[C@H](C(=O)O)[C@@H](O)[C@H](O)[C@H]4O)c3)[nH]c2c1` [OXi8006 Glucuronide], the Cmax in data set [2] (glucuronide metabolite, brain, counts per tissue sample (40 mg), after OXi8007 250 mg/kg) turned out to be 0.95 counts × 10^−6; in data set [2] (glucuronide metabolite, heart, counts per tissue sample (40 mg), after OXi8007 250 mg/kg) it was 9.8 counts × 10^−6; in data set [2] (glucuronide metabolite, left kidney, counts per tissue sample (40 mg), after OXi8007 250 mg/kg) it was 87.2 counts × 10^−6; in data set [2] (glucuronide metabolite, liver, counts per tissue sample (40 mg), after OXi8007 250 mg/kg), 28.23 counts × 10^−6; in data set [2] (glucuronide metabolite, lungs, counts per tissue sample (40 mg), after OXi8007 250 mg/kg), 20.87 counts × 10^−6; in data set [2] (glucuronide metabolite, plasma, counts per mL, no precise calibration, after OXi8007 250 mg/kg), 1266 counts × 10^−6. For the same compound, the Cmax in data set [2] (glucuronide metabolite, spleen, counts per tissue sample (40 mg), after OXi8007 250 mg/kg) came to 6.33 counts × 10^−6; in data set [2] (glucuronide metabolite, tumor, counts per tissue sample (40 mg), after OXi8007 250 mg/kg), 11.65 counts × 10^−6. The AUC in data set [2] (glucuronide metabolite, brain, after OXi8007 250 mg/kg) turned out to be 4.13 h × counts × 10^−6; in data set [2] (glucuronide metabolite, heart, after OXi8007 250 mg/kg), 24.52 h × counts × 10^−6; in data set [2] (glucuronide metabolite, left kidney, after OXi8007 250 mg/kg), 180.6 h × counts × 10^−6; in data set [2] (glucuronide metabolite, liver, after OXi8007 250 mg/kg) it was 128.7 h × counts × 10^−6; in data set [2] (glucuronide metabolite, lungs, after OXi8007 250 mg/kg) it was 69.33 h × counts × 10^−6; in data set [2] (glucuronide metabolite, plasma, no precise calibration, after OXi8007 250 mg/kg) it was 3490 h × counts × 10^−6. The AUC in data set [2] (glucuronide metabolite, spleen, after OXi8007 250 mg/kg) is given as 18.39 h × counts × 10^−6; in data set [2] (glucuronide metabolite, tumor, after OXi8007 250 mg/kg), 118.22 h × counts × 10^−6. Besides, the half-life in data set [2] (setting [3]) is 1.15 h; in data set [2] (setting [4]), 1.61 h; in data set [2] (setting [5]) it was 3.75 h; in data set [2] (setting [6]), 3.37 h; in data set [2] (setting [7]) it was 2.05 h; in data set [2] (setting [8]), 1.95 h. Besides, the half-life in data set [2] (setting [9]) was 2.2 h; in data set [2] (setting [10]) it was 5.87 h. Besides, the Tmax in data set [2] (setting [3]), in data set [2] (setting [4]), in data set [2] (setting [5]), in data set [2] (setting [6]), in data set [2] (setting [7]) and in data set [2] (setting [8]) was 1 h each time. The Tmax in data set [2] (setting [9]) was 1 h; in data set [2] (setting [10]), 4 h.
In the case of `COc1ccc2c(C(=O)c3cc(OC)c(OC)c(OC)c3)c(-c3ccc(OC)c(O)c3)[nH]c2c1` [OXi8006], the AUC in data set [2] (brain, after OXi8007 250 mg/kg IP) is 0.54 ng·h/mg; in data set [2] (heart, after OXi8007 250 mg/kg IP), 9.04 ng·h/mg; in data set [2] (left kidney, after OXi8007 250 mg/kg IP) it was 8.72 ng·h/mg; in data set [2] (liver, after OXi8007 250 mg/kg IP) it was 18.19 ng·h/mg; in data set [2] (lungs, after OXi8007 250 mg/kg IP) it was 9.45 ng·h/mg; in data set [2] (plasma, after OXi8007 250 mg/kg IP, zero to last quantifiable concentration), 47 ^# h × ng/µL. The AUC in data set [2] (spleen, after OXi8007 250 mg/kg IP) was 9.88 ng·h/mg; in data set [2] (tumor and right kidney, after OXi8007 250 mg/kg IP) it was 10.24 ng·h/mg. Further, the half-life in data set [2] (setting [11]) was 1.71 h; in data set [2] (setting [12]), 2.02 h; in data set [2] (setting [13]) it was 1.73 h; in data set [2] (setting [14]), 2.25 h; in data set [2] (setting [15]) it was 2.56 h; in data set [2] (setting [16]) it was 1.98 h. Moreover, the half-life in data set [2] (male, BALB/c, mouse, in vivo, ip, 250 mg/kg, plasma, after OXi8007 250 mg/kg IP, Renca-luc tumor-bearing BALB/c mice) was 1.99 h; in data set [2] (setting [17]), 1.72 h; in data set [2] (setting [18]), 4.23 h. Also, the Cmax is 220 ng/g in data set [2] (male, BALB/c, mouse, in vivo, ip, 250 mg/kg, brain, after OXi8007 250 mg/kg IP, read-out: Cmax); 5310 ng/g in data set [2] (male, BALB/c, mouse, in vivo, ip, 250 mg/kg, heart, after OXi8007 250 mg/kg IP, read-out: Cmax); 5860 ng/g in data set [2] (male, BALB/c, mouse, in vivo, ip, 250 mg/kg, left kidney, after OXi8007 250 mg/kg IP, read-out: Cmax); 9160 ng/g in data set [2] (male, BALB/c, mouse, in vivo, ip, 250 mg/kg, liver, after OXi8007 250 mg/kg IP, read-out: Cmax); 4180 ng/g in data set [2] (male, BALB/c, mouse, in vivo, ip, 250 mg/kg, lungs, after OXi8007 250 mg/kg IP, read-out: Cmax); 29000 ng/mL in data set [2] (male, BALB/c, mouse, in vivo, ip, 250 mg/kg, plasma, after OXi8007 250 mg/kg IP, read-out: Cmax). For the same compound, the Cmax in data set [2] (male, BALB/c, mouse, in vivo, ip, 250 mg/kg, spleen, after OXi8007 250 mg/kg IP, read-out: Cmax) is 4450 ng/g; in data set [2] (male, BALB/c, mouse, in vivo, ip, 250 mg/kg, tumor and right kidney, after OXi8007 250 mg/kg IP, read-out: Cmax), 2390 ng/g. The Tmax in data set [2] (setting [11]), in data set [2] (setting [12]), in data set [2] (setting [13]), in data set [2] (setting [14]), in data set [2] (setting [15]) and in data set [2] (setting [16]) was 0.333 h throughout. Moreover, the Tmax is 0.333 h in data set [2] (setting [17]) and 1 h in data set [2] (setting [18]).
